Laboratory results from patent publication US9688637B2, “3-amidobenzamides and uses thereof for increasing cellular levels of A3G and other A3 family members” (Northwestern University, priority 2014, dated 2017).

Key:
HIV NL4-3 = assay: Infectivity of virions from 293T co-transfected with NL4-3 and A3F, TZM-bl cells; format: cell-based, HIV-1; conditions: co-transfection of 293T with HIV NL4-3 and A3F (FIG. 8)
Protocol: FIG. 8. 293T cells were co-transfected with […] of NL4.3 plasmid DNA and 400 ng of either control or A3F/G DNAs, with or without NU52. Infectivity of equal amounts of resulting viruses (normalized by HIV-1 p24 antigen) were measured using TZM-bl cells. NU-52 treatment of producer cell reduced infectivity of virus produced from those cells.

293T cells = assay: Cellular cytotoxicity by counting cells after 48 hrs with compound vs DMSO; format: cell-based; conditions: concentration at which cell death was seen; 48 hrs
Protocol: To screen compounds that can boost A3G levels, 293T cells (25,000 cells per well in 96-well plate) stably expressing A3G-Luc protein or A3G-Luc/Vif proteins were plated. After 24 hrs post plating culture medium was replaced with 100 μl of new medium containing either DMSO as a control or various compounds (10 μM concentration). After 48 hrs of incubation with compounds culture medium was removed from each well and replaced with 100 μl of Britelite Plus luciferase assay substrate (PerkinElmer). Following 5 min. of incubation at room temperature, 75 μl of each cell lysate was transferred to a 96-well OptiPlate 96 (PerkinElmer) and luminescence was measured in a VICTOR X2 Multilabel Reader (PerkinElmer). Relative activity of compounds for their boosting capability A3G-Luc activity was calculated by plotting DMSO-treated A3G-Luc or A3G-Luc/Vif cells as 100%. Cellular cytotoxicity was measured by counting number of cells after 48 hrs of incubation with compounds compared to DMSO treated cells.

mutant Y124A A3G = target: T1, mutant Y124A A3G (Homo sapiens, UniProt Q9HC16, Y124A); assay: Steady state A3 protein level by immunoblot in transiently transfected 293T cells; format: cell-based; conditions: 293T transiently transfected, immunoblot (FIG. 7)
T1 construct: expressed in transfected cells; host or cells: 293T, transient transfection
T1 sequence (Q9HC16 whole entry Y124A): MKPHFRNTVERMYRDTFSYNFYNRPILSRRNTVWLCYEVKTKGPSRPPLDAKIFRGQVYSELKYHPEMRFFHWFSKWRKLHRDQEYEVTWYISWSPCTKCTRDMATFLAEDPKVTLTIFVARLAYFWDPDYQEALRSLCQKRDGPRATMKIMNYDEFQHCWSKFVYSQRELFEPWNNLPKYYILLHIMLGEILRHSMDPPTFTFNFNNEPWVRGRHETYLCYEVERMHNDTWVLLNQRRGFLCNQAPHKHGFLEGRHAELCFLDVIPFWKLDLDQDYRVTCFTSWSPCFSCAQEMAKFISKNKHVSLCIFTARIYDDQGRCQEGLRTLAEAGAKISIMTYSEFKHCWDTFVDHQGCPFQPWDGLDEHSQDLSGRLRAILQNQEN
Protocol: (§1) FIG. 7. 293T cells were transiently transfected with 400 ng of expression vectors for wild type A3G (A3G), a mutant A3G (A3G Y124A), and A3F (A3F) to test effect of NU52 treatment on steady state levels of the respective A3 protein, as detected by immunoblotting with respective antibodies, with GAPDH as loading control.

wild type A3F = target: T2, wild type A3F (Homo sapiens, UniProt Q8IUX4); assay: as above; format: cell-based; conditions: 293T transiently transfected, immunoblot (FIG. 7)
T2 construct: expressed in transfected cells; host or cells: 293T, transient transfection
T2 sequence (Q8IUX4 whole entry): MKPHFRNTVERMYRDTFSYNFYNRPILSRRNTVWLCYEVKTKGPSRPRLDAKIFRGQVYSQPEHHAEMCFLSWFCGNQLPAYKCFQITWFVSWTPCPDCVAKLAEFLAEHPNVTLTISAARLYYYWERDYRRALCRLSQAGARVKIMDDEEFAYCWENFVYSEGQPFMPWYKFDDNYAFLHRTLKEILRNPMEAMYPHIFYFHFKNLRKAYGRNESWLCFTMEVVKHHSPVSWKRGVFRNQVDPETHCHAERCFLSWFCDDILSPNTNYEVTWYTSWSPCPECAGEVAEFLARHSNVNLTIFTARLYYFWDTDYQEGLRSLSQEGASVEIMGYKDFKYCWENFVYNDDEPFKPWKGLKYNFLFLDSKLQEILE
Protocol: as §1

wild type A3G = target: T3, wild type A3G (Homo sapiens, UniProt Q9HC16); assay: as above; format: cell-based; conditions: 293T transiently transfected, immunoblot (FIG. 7)
T3 construct: expressed in transfected cells; host or cells: 293T, transient transfection
T3 sequence (Q9HC16 whole entry): as the sequence (Q9HC16 whole entry Y124A) above, with A124Y counted along it
Protocol: as §1

COc1ccc(C(=O)Nc2ccc(Cl)c(Cl)c2)cc1NC(=O)C(C)C [NU-52]
infectivity of virions (HIV NL4-3): decreased infectivity | Cytotoxicity: Cell Death at (293T cells): Cell Death at 30 μM | expression of mutant Y124A A3G (mutant Y124A A3G): increased | expression of wild type A3F (wild type A3F): increased | expression of wild type A3G (wild type A3G): increased
